Data: patent publication US9328083B2, “2-aminated methylene or 2-esterified methylene tanshinone derivatives, and preparation method and application thereof” (HANGZHOU BENSHENG PHARMACEUTICAL CO., LTD., priority 2011, dated 2016)
In brackets after ≈: the same amount, converted by molar mass.

How the values were obtained:
[1] = test system: K562/adr (drug-resistant, chronic myeloid leukemia, CML); test: MTT growth inhibition of leukemia cells, 72 h; assay type: cell-based, human; settings: Homo sapiens, K562/Adr; for IC50: read-out: IC50; for IC90: read-out: IC90
Text: (§1) Leukemia cell lines: leukemia cell lines: K562/adr (drug-resistant, chronic myeloid leukemia, CML), NB4 (acute promyelocytic leukemia, AML), Kasumi-1 (acute myeloid leukemia M2 type, AML-M2), and Jurkat (acute lymphoblastic leukemia, ALL), all of which are donated by Cancer Research Institute of Zhejiang University, China; and H9 (acute lymphoblastic leukemia, ALL), which is purchased from China Center for Type Culture Collection (CCTCC).
(§2) The standard sample of tanshinone I (TA) and the 2-aminated methylene or 2-esterified methylene tanshinone I derivatives of the present invention are sufficiently dissolved with dimethylsulfoxide to produce a stock solution of 10 mg/mL, which is refrigerated at 4° C. and stored in dark, and is diluted with a cell culture medium to the desired concentration prior to experimentation.
(§3) Obtaining 6000 well-growing leukemia cells and inoculating them into wells of a 96-well cell culture plate. The culture medium is the RPMI-1640 cell culture medium containing 10% fetal bovine serum. After adding on the second day the 2-aminated methylene or 2-esterified methylene tanshinone I derivatives of different concentrations and mixing uniformly, placing the plate in a carbon dioxide cell incubator (5% CO2) at 37° C. and incubated for 72 hours. Then the viable cell concentration is determined by MTT method.

[2] = test system: NB4 (acute promyelocytic leukemia, AML); test: MTT growth inhibition of leukemia cells, 72 h; assay type: cell-based, human; settings: Homo sapiens, NB4, 72 h; for IC50: read-out: IC50; for IC90: read-out: IC90
Text: as §1, §2, §3

[3] = test system: Kasumi-1 (acute myeloid leukemia M2 type, AML-M2); test: MTT growth inhibition of leukemia cells, 72 h; assay type: cell-based, human; settings: Homo sapiens, Kasumi-1, 72 h; for IC50: read-out: IC50; for IC90: read-out: IC90
Text: as §1, §2, §3

[4] = test system: H9 (acute lymphoblastic leukemia, ALL); test: MTT growth inhibition of leukemia cells, 72 h; assay type: cell-based, human; settings: Homo sapiens, H9, 72 h; for IC50: read-out: IC50; for IC90: read-out: IC90
Text: as §1, §2, §3

[5] = test system: Jurkat (acute lymphoblastic leukemia, ALL); test: MTT growth inhibition of leukemia cells, 72 h; assay type: cell-based, human; settings: Homo sapiens, 72 h; for IC50: read-out: IC50; for IC90: read-out: IC90
Text: as §1, §2, §3

[6] = test system: RPMI8226 (multiple myeloma); test: MTT growth inhibition of multiple myeloma cells, 72 h; assay type: cell-based, human; settings: Homo sapiens, RPMI 8226, 72 h; for IC50: read-out: IC50; for IC90: read-out: IC90
Experimental: Myeloma cell lines: RPMI8226 (multiple myeloma), purchased from Fuxiang Bio-tech Co. Ltd., Shanghai, China.
as §2
as §3, with “myeloma” for “leukemia”, “cells as above” for “cells”, “1640” for “RPMI-1640”, “adding” for “adding on the second day”

[7] = test system: Hep-2 (laryngeal carcinoma); test: MTT growth inhibition of human solid tumor cells, 72 h; assay type: cell-based; settings: Homo sapiens, HEp-2, 72 h; for IC50: read-out: IC50; for IC90: read-out: IC90
Experimental: (§4) Hep-2 (laryngeal carcinoma), A549 (human lung cancer), CaES-17 (esophageal cancer cell), PC-3 (prostate cancer), CNE (nasopharyngeal carcinoma cell), and SK-OV-3 (ovarian cancer cell), all of which are purchased from China Center For Type Culture Collection; RKO (human colon adenocarcinoma cell), MGC 803 (human gastric cancer cell), MG63 (osteosarcoma) and U87 MG (malignant glioma cell), all of which are purchased from Fuxiang Bio-tech Co. Ltd., Shanghai, China; PANC-1 (pancreatic cancer), Hep G2 (human liver cancer cell), Becap37 (human breast cancer cell) and Hela (human cervical cancer cell), all of which are donated by Cancer Research Institute of Zhejiang University, China.
as §2
(§5) Obtaining 4000 well-growing human solid tumor cells and inoculating them into wells of a 96-well cell culture plate. The culture medium is DMEM High Glucose cell culture medium containing 10% fetal bovine serum. The plate is placed in a carbon dioxide cell incubator (5% CO2) at 37° C. and incubated for 24 hours. After adding the 2-aminated methylene or 2-esterified methylene tanshinone I derivatives of different concentrations and mixing uniformly, the plate is placed in a carbon dioxide cell incubator (5% CO2) at 37° C. and incubated for 72 hours. Then the viable cell concentration is determined by the MTT method.

[8] = test system: U87 MG (malignant glioma cell); test: as above; assay type: cell-based; settings: Homo sapiens, U-87 MG, U87-MG, 72 h; for IC50: read-out: IC50; for IC90: read-out: IC90
Experimental: as §4, §2, §5

[9] = test system: RKO (human colon adenocarcinoma cell); test: as above; assay type: cell-based; settings: Homo sapiens; for IC50: read-out: IC50; for IC90: read-out: IC90
Experimental: as §4, §2, §5

PC-3 (prostate cancer) = test: as above; assay type: cell-based; settings: Homo sapiens, PC-3, 72 h; for IC50: read-out: IC50; for IC90: read-out: IC90
Experimental: as §4, §2, §5

[10] = test system: CaES-17 (esophageal cancer cell); test: as above; assay type: cell-based; settings: Homo sapiens, CaEs17, CaEs-17, 72 h; for IC50: read-out: IC50; for IC90: read-out: IC90
Experimental: as §4, §2, §5

[11] = test system: SK-OV-3 (ovarian cancer cell); test: as above; assay type: cell-based; settings: Homo sapiens, SK-OV-3, 72 h; for IC50: read-out: IC50; for IC90: read-out: IC90
Experimental: as §4, §2, §5

A549 (human lung cancer) = test: as above; assay type: cell-based; settings: Homo sapiens, A549, 72 h; for IC50: read-out: IC50; for IC90: read-out: IC90
Experimental: as §4, §2, §5

[12] = test system: Hela (human cervical cancer cell); test: as above; assay type: cell-based; settings: Homo sapiens, HeLa, 72 h; for IC50: read-out: IC50; for IC90: read-out: IC90
Experimental: as §4, §2, §5

[13] = test system: MGC 803 (human gastric cancer cell); test: as above; assay type: cell-based; settings: Homo sapiens, MGC-803, 72 h; for IC50: read-out: IC50; for IC90: read-out: IC90
Experimental: as §4, §2, §5

[14] = test system: Becap37 (human breast cancer cell); test: as above; assay type: cell-based; settings: Homo sapiens, Becap-37, 72 h; for IC50: read-out: IC50; for IC90: read-out: IC90
Experimental: as §4, §2, §5

[15] = test system: Hep G2 (human liver cancer cell); test: as above; assay type: cell-based; settings: Homo sapiens, HepG2, Hep G2, 72 h; for IC50: read-out: IC50; for IC90: read-out: IC90
Experimental: as §4, §2, §5

MG63 (osteosarcoma) = test: as above; assay type: cell-based; settings: Homo sapiens, MG-63, 72 h; for IC50: read-out: IC50; for IC90: read-out: IC90
Experimental: as §4, §2, §5

[16] = test system: CNE (nasopharyngeal carcinoma cell); test: as above; assay type: cell-based; settings: Homo sapiens; for IC50: read-out: IC50; for IC90: read-out: IC90
Experimental: as §4, §2, §5

[17] = test system: PANC-1 (pancreatic cancer); test: as above; assay type: cell-based; settings: Homo sapiens, PANC-1, 72 h; for IC50: read-out: IC50; for IC90: read-out: IC90
Experimental: as §4, §2, §5

Row | IC50 [1] [µg/mL] | IC90 [1] [µg/mL] | IC50 [2] [µg/mL] | IC90 [2] [µg/mL] | IC50 [3] [µg/mL] | IC90 [3] [µg/mL] | IC50 [4] [µg/mL] | IC90 [4] [µg/mL] | IC50 [5] [µg/mL] | IC90 [5] [µg/mL] | IC50 [6] [µg/mL] | IC90 [6] [µg/mL] | IC50 [7] [µg/mL] | IC90 [7] [µg/mL] | IC50 [8] [µg/mL] | IC90 [8] [µg/mL] | IC50 [9] [µg/mL] | IC90 [9] [µg/mL] | IC50 (PC-3 (prostate cancer)) [µg/mL] | IC90 (PC-3 (prostate cancer)) [µg/mL] | Structure (SMILES) | further results
1 | 1.26 (≈ 2.8 µM) | 4.6 (≈ 10.2 µM) | 3.73 (≈ 8.3 µM) | 10.4 (≈ 23.1 µM) | 1.48 (≈ 3.29 µM) | 3.89 (≈ 8.65 µM) | 3.75 (≈ 8.34 µM) | 15.3 (≈ 34.1 µM) | 3 (≈ 6.67 µM) | 7.56 (≈ 16.8 µM) | 7.76 (≈ 17.3 µM) | 16 (≈ 35.6 µM) | 3.39 (≈ 7.54 µM) | 22.4 (≈ 49.9 µM) | 15.8 (≈ 35.2 µM) | > 16 | 1.86 (≈ 4.14 µM) | 17.6 (≈ 39.2 µM) | 5.83 (≈ 13 µM) | 18.9 (≈ 42 µM) | Cc1c(CN(C)CCOC(=O)OC(C)C)oc2c1C(=O)C(=O)c1c-2ccc2c(C)cccc12 [BS-TA-63] | IC50 [10]: > 16 µg/mL; IC90 [10]: > 16 µg/mL; IC50 [11]: > 16 µg/mL; IC90 [11]: > 16 µg/mL; IC50 (A549 (human lung cancer)): 6.5 µg/mL (≈ 14.5 µM); IC90 (A549 (human lung cancer)): 23.4 µg/mL (≈ 52.1 µM); IC50 [12]: 8.77 µg/mL (≈ 19.5 µM); IC90 [12]: > 16 µg/mL; IC50 [13]: 14.9 µg/mL (≈ 33.1 µM); IC90 [13]: > 16 µg/mL; IC50 [14]: 16 µg/mL (≈ 35.6 µM); IC90 [14]: > 16 µg/mL; IC50 [15]: 15.7 µg/mL (≈ 34.8 µM); IC90 [15]: > 16 µg/mL; IC50 (MG63 (osteosarcoma)): 14.1 µg/mL (≈ 31.4 µM); IC90 (MG63 (osteosarcoma)): > 16 µg/mL; IC50 [16]: > 16 µg/mL; IC90 [16]: > 16 µg/mL; IC50 [17]: 4.92 µg/mL (≈ 10.9 µM); IC90 [17]: 20.9 µg/mL (≈ 46.4 µM)
2 | 0.84 (≈ 1.77 µM) | 2.82 (≈ 5.94 µM) | 0.25 (≈ 0.527 µM) | 0.87 (≈ 1.83 µM) | 0.33 (≈ 0.695 µM) | 0.7 (≈ 1.48 µM) | 0.59 (≈ 1.24 µM) | 1.63 (≈ 3.43 µM) | 0.54 (≈ 1.14 µM) | 1.92 (≈ 4.05 µM) | 0.4 (≈ 0.843 µM) | 0.92 (≈ 1.94 µM) | 1.67 (≈ 3.52 µM) | 3.65 (≈ 7.69 µM) | 1.16 (≈ 2.44 µM) | 3.72 (≈ 7.84 µM) | 0.29 (≈ 0.611 µM) | 5.56 (≈ 11.7 µM) | 1.8 (≈ 3.79 µM) | 4.15 (≈ 8.74 µM) | Cc1c(CN(C)CCOC(=O)C2CCNCC2)oc2c1C(=O)C(=O)c1c-2ccc2c(C)cccc12 [BS-TA-64] | IC50 [10]: 0.88 µg/mL (≈ 1.85 µM); IC90 [10]: 1.85 µg/mL (≈ 3.9 µM); IC50 [11]: 3.55 µg/mL (≈ 7.48 µM); IC90 [11]: 7.76 µg/mL (≈ 16.4 µM); IC50 (A549 (human lung cancer)): 1.4 µg/mL (≈ 2.95 µM); IC90 (A549 (human lung cancer)): 4.46 µg/mL (≈ 9.4 µM); IC50 [12]: 2.16 µg/mL (≈ 4.55 µM); IC90 [12]: 3.9 µg/mL (≈ 8.22 µM); IC50 [13]: 0.85 µg/mL (≈ 1.79 µM); IC90 [13]: 3.24 µg/mL (≈ 6.83 µM); IC50 [14]: 0.77 µg/mL (≈ 1.62 µM); IC90 [14]: 1.67 µg/mL (≈ 3.52 µM); IC50 [15]: 1.31 µg/mL (≈ 2.76 µM); IC90 [15]: 3.66 µg/mL (≈ 7.71 µM); IC50 (MG63 (osteosarcoma)): 0.82 µg/mL (≈ 1.73 µM); IC90 (MG63 (osteosarcoma)): 2.16 µg/mL (≈ 4.55 µM); IC50 [16]: 1.8 µg/mL (≈ 3.79 µM); IC90 [16]: 3.8 µg/mL (≈ 8.01 µM); IC50 [17]: 0.71 µg/mL (≈ 1.5 µM); IC90 [17]: 5.07 µg/mL (≈ 10.7 µM)
